The numbers were not newly measured in US20150313829A1, “TOPICAL FORMULATIONS FOR THE PREVENTION AND TREATMENT OF ALOPECIA AND INHIBITION OF HAIR GROWTH” (UNIVERSIDADE FEDERAL DE MINAS GERAIS -UFMG, priority 2012, published 2015), which cites them from elsewhere.

The data set has as its system murine model of alopecia. Particulars: WO 01/98325.

With “Asp1-Arg2-VAL3-Tyr4-Ile5-His6-Pro7 [Ang-(1-7)]”, the hair growth result is reported as “induces hair growth” and the “number of mature follicles” value is “increased the number of mature follicles”.
